Experimental data published in the supplement of paper PMC10307832.

What was measured:
Experiment in all cases: relative viability (nuclei count vs DMSO), 5 days (fraction); higher = more cells survive
[1] = tested on: HCC-827
How it was run: (§1)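 Relative viability divides the nuclei count in treated wells by that in vehicle wells. Lung cancer cell lines were seeded in 1536-well plates, dosed by pin tool the next day, and fixed and stained after 5 days in one step with final 0.05% Triton X-100, 1% formaldehyde and 1 ug/ml Hoechst. Dosing was a single drug or a fixed anchor-drug dose plus five library-drug doses (not always all listed) in √10 steps, and values are medians of duplicate plates imaged at 4×.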

[2] = tested on: LCLC-97TM1
How it was run: as §1

[3] = tested on: NCI-H2405
How it was run: as §1

[4] = tested on: HCC-78
How it was run: as §1

[5] = tested on: NCI-H2126
How it was run: as §1

[6] = tested on: EPLC-272H
How it was run: as §1

[7] = tested on: PC-14
How it was run: as §1

[8] = tested on: 201T
How it was run: as §1

[9] = tested on: RERF-LC-KJ
How it was run: as §1

[10] = tested on: NCI-H1666
How it was run: as §1

[11] = tested on: NCI-H2087
How it was run: as §1

SMILES: Nc1ccn([C@@H]2O[C@H](CO)[C@@H](O)[C@@H]2O)c(=O)n1 [Cytarabine] + COc1cccc2cc(-c3nc([C@H]4CC[C@H](C(=O)O)CC4)n4ncnc(N)c34)[nH]c12 [OSI-027] (partner 0.5 µM)
- relative viability ([1]; first compound 0.005 µM): 0.467
- relative viability ([1]; first compound 0.01581 µM): 0.348
- relative viability ([1]; first compound 0.05 µM): 0.265
- relative viability ([1]; first compound 0.1581 µM): 0.175
- relative viability ([1]; first compound 0.5 µM): 0.159
- relative viability ([2]; first compound 0.005 µM): 0.45
- relative viability ([2]; first compound 0.01581 µM): 0.37
- relative viability ([2]; first compound 0.05 µM): 0.439
- relative viability ([2]; first compound 0.1581 µM): 0.191
- relative viability ([2]; first compound 0.5 µM): 0.139
- relative viability ([3]; first compound 0.005 µM): 0.62
- relative viability ([3]; first compound 0.01581 µM): 0.558
- relative viability ([3]; first compound 0.05 µM): 0.434
- relative viability ([3]; first compound 0.1581 µM): 0.394
- relative viability ([3]; first compound 0.5 µM): 0.325
- relative viability ([4]; first compound 0.005 µM): 0.368
- relative viability ([4]; first compound 0.01581 µM): 0.349
- relative viability ([4]; first compound 0.05 µM): 0.314
- relative viability ([4]; first compound 0.1581 µM): 0.242
- relative viability ([4]; first compound 0.5 µM): 0.258
- relative viability ([5]; first compound 0.005 µM): 0.62
- relative viability ([5]; first compound 0.01581 µM): 0.626
- relative viability ([5]; first compound 0.05 µM): 0.544
- relative viability ([5]; first compound 0.1581 µM): 0.533
- relative viability ([5]; first compound 0.5 µM): 0.45
- relative viability ([6]; first compound 0.005 µM): 0.268
- relative viability ([6]; first compound 0.01581 µM): 0.28
- relative viability ([6]; first compound 0.05 µM): 0.214
- relative viability ([6]; first compound 0.1581 µM): 0.189
- relative viability ([6]; first compound 0.5 µM): 0.182
- relative viability ([7]; first compound 0.005 µM): 0.691
- relative viability ([7]; first compound 0.01581 µM): 0.455
- relative viability ([7]; first compound 0.05 µM): 0.71
- relative viability ([7]; first compound 0.1581 µM): 0.166
- relative viability ([7]; first compound 0.5 µM): 0.115
- relative viability ([8]; first compound 0.005 µM): 0.711
- relative viability ([8]; first compound 0.01581 µM): 0.782
- relative viability ([8]; first compound 0.05 µM): 0.562
- relative viability ([8]; first compound 0.1581 µM): 0.382
- relative viability ([8]; first compound 0.5 µM): 0.272
- relative viability ([9]; first compound 0.005 µM): 0.461
- relative viability ([9]; first compound 0.01581 µM): 0.477
- relative viability ([9]; first compound 0.05 µM): 0.5
- relative viability ([9]; first compound 0.1581 µM): 0.391
- relative viability ([9]; first compound 0.5 µM): 0.297
- relative viability ([10]; first compound 0.005 µM): 0.81
- relative viability ([10]; first compound 0.01581 µM): 0.729
- relative viability ([10]; first compound 0.05 µM): 0.798
- relative viability ([10]; first compound 0.1581 µM): 0.455
- relative viability ([10]; first compound 0.5 µM): 0.511
- relative viability ([11]; first compound 0.005 µM): 0.406
- relative viability ([11]; first compound 0.01581 µM): 0.485
- relative viability ([11]; first compound 0.05 µM): 0.416
- relative viability ([11]; first compound 0.1581 µM): 0.192
- relative viability ([11]; first compound 0.5 µM): 0.121
